Results from PubChem BioAssay AID328 (DTP/NCI, 2004).
“And” between values parts separate entries of the source, which are not always exact repeats. Equal values may be shown once. Toxic doses and inconclusive results are not listed.

Test system: BDF1 mice, P388 leukemia ip, median survival T/C
Test: NCI In Vivo Anticancer Drug Screen. Data for tumor model P388 Leukemia (intraperitoneal) in B6D2F1 (BDF1) mice
Details: endpoint: median survival time, higher = longer survival
Procedure, shortened: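 Steps: implant the tumour, treat one group with compound and another with vehicle, record survival, then divide treated by control.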

[1] = dose: 100.0 mg/kg/injection, schedule: Q04DX003 (ip), vehicle: saline with Tween-80
[2] = dose: 200.0 mg/kg/injection, schedule: Q04DX003 (ip), vehicle: saline with Tween-80
[3] = dose: 400.0 mg/kg/injection, schedule: Q04DX003 (ip), vehicle: saline with Tween-80
[4] = dose: 100.0 mg/kg/injection, schedule: Q01DX009 (ip), vehicle: Klucel (hydroxypropylcellulose) (HPC)
[5] = dose: 200.0 mg/kg/injection, schedule: Q01DX009 (ip), vehicle: Klucel (hydroxypropylcellulose) (HPC)
[6] = dose: 200.0 mg/kg/injection, schedule: Q04DX003 (ip), vehicle: Klucel (hydroxypropylcellulose) (HPC)
[7] = dose: 50.0 mg/kg/injection, schedule: Q01DX009 (ip), vehicle: saline with Tween-80
[8] = dose: 100.0 mg/kg/injection, schedule: Q01DX009 (ip), vehicle: saline with Tween-80
[9] = dose: 12.5 mg/kg/injection, schedule: Q01DX009 (ip), vehicle: saline with Tween-80
[10] = dose: 25.0 mg/kg/injection, schedule: Q01DX009 (ip), vehicle: saline with Tween-80
[11] = dose: 100.0 mg/kg/injection, schedule: Q04DX002 (ip), vehicle: saline with Tween-80
[12] = dose: 200.0 mg/kg/injection, schedule: Q04DX002 (ip), vehicle: saline with Tween-80
[13] = dose: 400.0 mg/kg/injection, schedule: Q04DX002 (ip), vehicle: saline with Tween-80
[14] = dose: 100.0 mg/kg/injection, schedule: Q04DX003 (ip), vehicle: Klucel (hydroxypropylcellulose) (HPC)
[15] = dose: 50.0 mg/kg/injection, schedule: Q01DX009 (ip), vehicle: saline
[16] = dose: 100.0 mg/kg/injection, schedule: Q01DX009 (ip), vehicle: saline
[17] = dose: 200.0 mg/kg/injection, schedule: Q01DX009 (ip), vehicle: saline

Compound: Nc1cncc2ncc(-c3ccc(Cl)c(Cl)c3)nc12
- T/C (dose: 100.0 mg/kg/injection, schedule: Q01DX001 (ip), vehicle: saline sonified): 91 % of control
- T/C (dose: 200.0 mg/kg/injection, schedule: Q01DX001 (ip), vehicle: saline sonified): 100 % of control
- T/C (dose: 400.0 mg/kg/injection, schedule: Q01DX001 (ip), vehicle: saline sonified): 104 % of control

Compound: CCOC(=O)C1c2cccc(O)c2C=CN1C(C)=O (stereo not given)
- T/C [1]: 91 % of control
- T/C [2]: 91 % of control
- T/C [3]: 95 % of control

Compound: Cc1cc(N(CCCl)CCCl)ccc1/C=N\Nc1nncn1N
- T/C (dose: 35.0 mg/kg/injection, schedule: Q01DX007 (ip), vehicle: Klucel (hydroxypropylcellulose) (HPC)): 157 % of control
- T/C (dose: 45.0 mg/kg/injection, schedule: Q04DX003 (ip), vehicle: Klucel (hydroxypropylcellulose) (HPC)): 120 % of control
- T/C (dose: 50.0 mg/kg/injection, schedule: Q01DX007 (ip), vehicle: Klucel (hydroxypropylcellulose) (HPC)): 175 % of control
- T/C (dose: 75.0 mg/kg/injection, schedule: Q01DX007 (ip), vehicle: Klucel (hydroxypropylcellulose) (HPC)): 211 % of control
- T/C [4]: 118 % of control
- T/C (dose: 132.0 mg/kg/injection, schedule: Q04DX003 (ip), vehicle: Klucel (hydroxypropylcellulose) (HPC)): 213 % of control
- T/C (dose: 132.0 mg/kg/injection, schedule: Q04DX003 (ip), vehicle: saline): 163 % of control
- T/C [5]: 90 % of control
- T/C [6]: 218 % of control
- T/C (dose: 300.0 mg/kg/injection, schedule: Q04DX003 (ip), vehicle: Klucel (hydroxypropylcellulose) (HPC)): 122 % of control
- T/C (dose: 300.0 mg/kg/injection, schedule: Q04DX003 (ip), vehicle: saline): 90 % of control

Compound: C=CCNC(=O)Cn1nnc(-c2ccccc2)n1
- T/C [7]: 86 % of control
- T/C [8]: 101 % of control
- T/C (dose: 200.0 mg/kg/injection, schedule: Q01DX009 (ip), vehicle: saline with Tween-80): 107 % of control

Compound: N#Cc1ccc(NCCO)cc1
- T/C [1]: 111 % of control
- T/C [2]: 100 % of control
- T/C [3]: 111 % of control

Compound: C[N-]c1nnnn1C.[Au+].c1ccc([PH+](c2ccccc2)c2ccccc2)cc1
- T/C (dose: 6.25 mg/kg/injection, schedule: Q01DX009 (ip), vehicle: saline with Tween-80): 108 % of control
- T/C [9]: 108 % of control
- T/C [10]: 108 % of control

Compound: Cc1noc2nc[nH]c(=O)c12
- T/C [11]: 107 % of control
- T/C [12]: 106 % of control
- T/C [13]: 94 % of control

Compound: Cc1cc(C)nc(NS(=O)(=O)c2ccc(N=Nc3nc4[nH]c(N)nc(=S)c4[nH]3)cc2)n1
- T/C (dose: 1.56 mg/kg/injection, schedule: Q01DX009 (ip), vehicle: Klucel (hydroxypropylcellulose) (HPC)): 113 % of control
- T/C (dose: 3.13 mg/kg/injection, schedule: Q01DX009 (ip), vehicle: Klucel (hydroxypropylcellulose) (HPC)): 117 % of control
- T/C (dose: 6.25 mg/kg/injection, schedule: Q01DX009 (ip), vehicle: Klucel (hydroxypropylcellulose) (HPC)): 112 % of control and 113 % of control
- T/C (dose: 50.0 mg/kg/injection, schedule: Q04DX003 (ip), vehicle: Klucel (hydroxypropylcellulose) (HPC)): 116 % of control
- T/C [14]: 108 % of control
- T/C [6]: 104 % of control

Compound: O=C(O)O.[Ce]
- T/C [7]: 107 % of control
- T/C [8]: 107 % of control

Compound: COc1cc(Br)c(/C=C(\C)[N+](=O)[O-])cc1OC
- T/C (dose: 100.0 mg/kg/injection, schedule: Q01DX001 (ip), vehicle: saline with Tween-80): 109 % of control
- T/C (dose: 200.0 mg/kg/injection, schedule: Q01DX001 (ip), vehicle: saline with Tween-80): 93 % of control

Compound: [Cl][Rh][Cl].[NH-]c1ccc(S(=O)(=O)Nc2ccccn2)cc1.[NH-]c1ccc(S(=O)(=O)Nc2ccccn2)cc1.[NH-]c1ccc(S(=O)(=O)Nc2ccccn2)cc1.[NH-]c1ccc(S(=O)(=O)Nc2ccccn2)cc1
- T/C [1]: 108 % of control
- T/C [2]: 94 % of control
- T/C [3]: 91 % of control

Compound: CSC(N)=Nc1ccc(C(=O)O)cc1
- T/C [1]: 100 % of control
- T/C [2]: 104 % of control
- T/C [3]: 95 % of control

Compound: Cc1[nH]c(=O)[nH]c(=O)c1N(CCF)CCCl
- T/C (dose: 5.0 mg/kg/injection, schedule: Q01DX009 (ip), vehicle: Klucel (hydroxypropylcellulose) (HPC)): 150 % of control
- T/C (dose: 10.0 mg/kg/injection, schedule: Q01DX009 (ip), vehicle: Klucel (hydroxypropylcellulose) (HPC)): 172 % of control
- T/C (dose: 10.0 mg/kg/injection, schedule: Q01DX009 (ip), vehicle: saline): 162 % of control
- T/C (dose: 16.5 mg/kg/injection, schedule: Q04DX003 (ip), vehicle: saline with Tween-80): 168 % of control
- T/C (dose: 25.0 mg/kg/injection, schedule: Q04DX003 (ip), vehicle: saline with Tween-80): 204 % of control
- T/C (dose: 37.5 mg/kg/injection, schedule: Q04DX003 (ip), vehicle: saline with Tween-80): 200 % of control

Compound: COC(=O)/C=C/CCOS(C)(=O)=O
- T/C [11]: 104 % of control
- T/C [12]: 124 % of control
- T/C [13]: 107 % of control

Compound: Nc1ccc(S(=O)(=O)N/N=C/c2ccccc2Cl)cc1
- T/C [9]: 96 % of control
- T/C [10]: 96 % of control
- T/C [7]: 92 % of control

Compound: CC(C)(C)OC(=O)NCC(=O)NC(Cc1c[nH]c2ccccc12)C(=O)O (stereo not given)
- T/C (dose: 50.0 mg/kg/injection, schedule: Q01DX005 (ip), vehicle: saline with Tween-80): 102 % of control
- T/C (dose: 100.0 mg/kg/injection, schedule: Q01DX005 (ip), vehicle: saline with Tween-80): 95 % of control
- T/C (dose: 200.0 mg/kg/injection, schedule: Q01DX005 (ip), vehicle: saline with Tween-80): 95 % of control

Compound: Cc1[nH]c(=O)[nH]c(=O)c1/C=C/C(=O)NC(CO)CC(C)C (stereo not given)
- T/C (dose: 12.5 mg/kg/injection, schedule: Q01DX009 (ip), vehicle: saline): 108 % of control
- T/C (dose: 25.0 mg/kg/injection, schedule: Q01DX009 (ip), vehicle: saline): 90 % of control
- T/C (dose: 25.0 mg/kg/injection, schedule: Q04DX003 (ip), vehicle: saline): 107 % of control
- T/C [15]: 102 % of control
- T/C (dose: 50.0 mg/kg/injection, schedule: Q04DX003 (ip), vehicle: saline): 100 % of control
- T/C [16]: 91 % of control
- T/C (dose: 100.0 mg/kg/injection, schedule: Q04DX003 (ip), vehicle: saline): 91 % of control
- T/C [17]: 108 % of control
- T/C (dose: 200.0 mg/kg/injection, schedule: Q04DX003 (ip), vehicle: saline): 109 % of control
- T/C (dose: 400.0 mg/kg/injection, schedule: Q01DX009 (ip), vehicle: saline): 100 % of control
- T/C (dose: 400.0 mg/kg/injection, schedule: Q04DX003 (ip), vehicle: saline): 116 % of control

Compound: CC[N+](CC)(CC)CC[N+](CC)(CC)CC
- T/C [15]: 95 % of control
- T/C [16]: 96 % of control and 88 % of control
- T/C [17]: 95 % of control and 91 % of control

Compound: Cc1ccc(S(=O)(=O)N/N=C/C(O)C(O)C(O)CO)cc1 (stereo not given)
- T/C (dose: 100.0 mg/kg/injection, schedule: Q01DX001 (ip), vehicle: saline): 110 % of control
- T/C (dose: 200.0 mg/kg/injection, schedule: Q01DX001 (ip), vehicle: saline): 105 % of control
- T/C (dose: 400.0 mg/kg/injection, schedule: Q01DX001 (ip), vehicle: saline): 120 % of control

Compound: CN(C)c1ccc(C(=C2C=CC(=[N+](C)C)C=C2)c2ccc(N(C)C)cc2)cc1
- T/C (dose: 0.78 mg/kg/injection, schedule: Q01DX009 (ip), vehicle: saline): 107 % of control
- T/C (dose: 1.56 mg/kg/injection, schedule: Q01DX009 (ip), vehicle: saline): 121 % of control
- T/C (dose: 1.56 mg/kg/injection, schedule: Q04DX003 (ip), vehicle: saline): 122 % of control
- T/C (dose: 3.12 mg/kg/injection, schedule: Q04DX003 (ip), vehicle: saline): 86 % of control

Compound: O=C(O)C(/C=N\Nc1ccccc1)=N\Nc1ccccc1
- T/C (dose: 37.5 mg/kg/injection, schedule: Q01DX009 (ip), vehicle: saline with Tween-80): 110 % of control
- T/C (dose: 75.0 mg/kg/injection, schedule: Q01DX009 (ip), vehicle: saline with Tween-80): 115 % of control
- T/C (dose: 150.0 mg/kg/injection, schedule: Q01DX009 (ip), vehicle: saline with Tween-80): 118 % of control

Compound: CC(C)CC(C)CC(O)CC(C)C (stereo not given)
- T/C [4]: 110 % of control
- T/C [14]: 100 % of control
- T/C [5]: 100 % of control
- T/C [6]: 100 % of control
- T/C (dose: 400.0 mg/kg/injection, schedule: Q01DX009 (ip), vehicle: Klucel (hydroxypropylcellulose) (HPC)): 115 % of control
- T/C (dose: 400.0 mg/kg/injection, schedule: Q04DX003 (ip), vehicle: Klucel (hydroxypropylcellulose) (HPC)): 95 % of control
